{"source": "patent US20230263786A1", "about": "“MODULATION OF DRUG-DRUG INTERACTIONS OF VADADUSTAT” (Akebia Therapeutics, Inc., priority 2020, published 2023)", "key": {"[1]": {"assay": "Plasma pharmacokinetics, 150/300/600 mg once daily, first day", "type": "in vivo", "conditions": "male, human, healthy adult men"}, "[2]": {"assay": "Phase 1 oral iron interaction study, Cohort 2 (before meal): sucroferric oxyhydroxide", "type": "in vivo, human", "conditions": "for AUC(0-inf) / AUC(0-t) / Cmax / half-life: male, human, plasma, oral; for AUC(0-inf): read-out: AUC(0-inf), LS geometric mean; for AUC(0-t): read-out: AUC(0-last), LS geometric mean; for Cmax: read-out: Cmax, LS geometric mean; for half-life: read-out: t1/2, LS geometric mean (converted)", "description": "The study included 3 periods as follow: • Screening: performed within 4 weeks before the day of administration of the study drug. • Evaluation period: Cohort 1 was confined to the study site for 10-night, 11-day. Cohort 2 and Cohort 3 were confined to the study site for 7 nights and 8 days. • Post-administration tests: performed 3 days after administration of the last dose of the study drug.\nIn Cohort 2, 20 subjects were further randomized into 2 groups (10 subjects per group) and the evaluation period was divided into 2 periods during the study:\nAdministration of vadadustat tablets alone: after fasting for at least 10 hours and immediately before eating breakfast (5 minutes before starting the meal), 1 vadadustat tablet (150 mg) will be taken orally with 200 mL of water, then breakfast would be eaten over a period of 10 minutes (extra water may be drunk if more is needed when taking the tablet, and the extra volume would be recorded). After breakfast, subjects would fast until the end of the collection of blood samples at 4 hours after administration of the study drug. Subjects would eat lunch over a period of 20 minutes after blood samples were collected at 4 hours after administration of the study drug. After lunch, subjects would fast until dinner, when they would eat dinner over a period of 20 minutes at 10 hours after administration of the study drug. Subjects would fast from dinner until breakfast the next morning.\nAdministration of vadadustat tablets and sucroferric oxyhydroxide: after fasting for at least 10 hours and immediately before eating breakfast (5 minutes before starting the meal), subjects would chew and swallow 2 tablets of sucroferric oxyhydroxide (containing 1000 mg of iron), then 1 vadadustat tablet (150 mg) would be taken orally with 200 mL of water, then breakfast would be eaten over a period of 10 minutes (extra water may be drunk if more is needed when taking the tablets, and the extra volume would be recorded). After breakfast, subjects would fast until the end of the collection of blood samples at 4 hours after administration of the study drug. After blood samples were collected at 4 hours after administration of the study drug and immediately before lunch, subjects would chew and swallow 2 tablets of sucroferric oxyhydroxide (containing 1000 mg of iron), then eat lunch over a period of 20 minutes. After lunch, subjects will fast until dinner, and immediately before dinner at 10 hours after administration of the study drug, chew and swallow 2 tablets of sucroferric oxyhydroxide (containing 1000 mg of iron), then eat dinner over a period of 20 minutes. Subjects would fast from dinner until breakfast the next morning."}, "[3]": {"conditions": "150 mg with sucroferric oxyhydroxide (1000 mg iron), before meal"}}, "note": "Like-named read-outs stand apart in the source and are kept apart here.", "data": [{"compound": "O=C(O)CNC(=O)c1ncc(-c2cccc(Cl)c2)cc1O", "note": "[Compound 1, {[5-(3-chlorophenyl)-3-hydroxypyridine-2-carbonyl]amino}acetic acid]", "values": [{"measurement": "AUC(0-t)", "setting": "[1]; 150 mg once daily", "value": "123000 ± 30500", "unit": "ng·h/mL"}, {"measurement": "Cmax", "setting": "[1]; 150 mg once daily", "value": "24200 ± 4990", "unit": "ng/mL"}, {"measurement": "Tmax", "setting": "[1]; 150 mg once daily", "value": 0.75, "unit": "h"}, {"measurement": "half-life", "setting": "[1]; 150 mg once daily", "value": "5.96 ± 0.914", "unit": "h"}, {"measurement": "AUC(0-t)", "setting": "[1]; 300 mg once daily", "value": "289000 ± 75300", "unit": "ng·h/mL"}, {"measurement": "Cmax", "setting": "[1]; 300 mg once daily", "value": "44300 ± 10800", "unit": "ng/mL"}, {"measurement": "Tmax", "setting": "[1]; 300 mg once daily", "value": 1.95, "unit": "h"}, {"measurement": "half-life", "setting": "[1]; 300 mg once daily", "value": "6.14 ± 0.763", "unit": "h"}, {"measurement": "AUC(0-t)", "setting": "[1]; 600 mg once daily", "value": "624000 ± 205000", "unit": "ng·h/mL"}, {"measurement": "Cmax", "setting": "[1]; 600 mg once daily", "value": "84800 ± 22300", "unit": "ng/mL"}, {"measurement": "Tmax", "setting": "[1]; 600 mg once daily", "value": 1.98, "unit": "h"}, {"measurement": "half-life", "setting": "[1]; 600 mg once daily", "value": "6.07 ± 0.419", "unit": "h"}, {"measurement": "Kel, LS geometric mean", "setting": "[2]; [3]", "value": 0.16, "unit": "h⁻¹"}, {"measurement": "Kel, LS geometric mean", "setting": "[2]; Compound 1 150 mg alone, before meal", "value": 0.13, "unit": "h⁻¹"}, {"measurement": "AUC(0-inf)", "setting": "[2]; 150 mg", "value": 99500, "unit": "ng·h/mL"}, {"measurement": "AUC(0-t)", "setting": "[2]; 150 mg", "value": 95700, "unit": "ng·h/mL"}, {"measurement": "Cmax", "setting": "[2]; 150 mg", "value": 15200, "unit": "ng/mL"}, {"measurement": "half-life", "setting": "[2]; 150 mg", "value": 5.17, "unit": "h"}, {"measurement": "AUC(0-inf)", "setting": "[2]; [3]", "value": 45700, "unit": "ng·h/mL"}, {"measurement": "AUC(0-t)", "setting": "[2]; [3]", "value": 44500, "unit": "ng·h/mL"}, {"measurement": "Cmax", "setting": "[2]; [3]", "value": 8810, "unit": "ng/mL"}, {"measurement": "half-life", "setting": "[2]; [3]", "value": 4.33, "unit": "h"}]}]}
